Structures are written as SMILES. Bounds are passed on as bounds.

In one experiment the target is CAMKK2 (Homo sapiens, UniProt Q96RR4). Briefly: kinase binding constant, 11-point dose response (T7 phage, qPCR). As to conditions: >30 = no inhibition at highest concentration tested.
The target in the next experiment is T1, ULK1 (Homo sapiens, UniProt O75385).
T1 sequence (O75385 1-1050): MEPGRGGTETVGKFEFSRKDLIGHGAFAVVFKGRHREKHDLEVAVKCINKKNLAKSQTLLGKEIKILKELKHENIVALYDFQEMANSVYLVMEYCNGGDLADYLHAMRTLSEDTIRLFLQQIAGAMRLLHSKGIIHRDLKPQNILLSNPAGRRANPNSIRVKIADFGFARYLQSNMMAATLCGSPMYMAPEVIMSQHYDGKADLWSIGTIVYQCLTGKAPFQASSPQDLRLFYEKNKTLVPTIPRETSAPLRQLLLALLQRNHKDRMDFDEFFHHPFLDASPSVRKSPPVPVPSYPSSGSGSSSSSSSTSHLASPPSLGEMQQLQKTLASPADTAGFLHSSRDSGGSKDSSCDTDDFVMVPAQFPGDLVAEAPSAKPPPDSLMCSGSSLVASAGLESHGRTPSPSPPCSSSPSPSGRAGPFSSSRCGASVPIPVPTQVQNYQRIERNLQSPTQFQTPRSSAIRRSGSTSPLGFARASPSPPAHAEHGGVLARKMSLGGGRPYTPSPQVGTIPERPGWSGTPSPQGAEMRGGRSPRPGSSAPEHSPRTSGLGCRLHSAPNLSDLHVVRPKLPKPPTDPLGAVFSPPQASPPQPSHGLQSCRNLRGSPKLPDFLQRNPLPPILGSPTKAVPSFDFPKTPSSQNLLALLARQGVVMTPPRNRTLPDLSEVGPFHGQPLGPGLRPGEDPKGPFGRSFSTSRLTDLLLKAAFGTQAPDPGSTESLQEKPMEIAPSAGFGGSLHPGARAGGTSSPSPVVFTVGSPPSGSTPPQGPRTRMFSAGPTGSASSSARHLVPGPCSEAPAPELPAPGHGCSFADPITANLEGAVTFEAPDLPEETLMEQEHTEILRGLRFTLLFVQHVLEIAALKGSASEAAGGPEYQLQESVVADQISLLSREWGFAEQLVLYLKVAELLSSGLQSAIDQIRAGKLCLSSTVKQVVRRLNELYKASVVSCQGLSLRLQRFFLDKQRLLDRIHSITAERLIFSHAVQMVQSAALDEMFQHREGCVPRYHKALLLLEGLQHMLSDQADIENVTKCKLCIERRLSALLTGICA
Described as above. The following applies: >30 = no inhibition at highest concentration tested.

CAMKK2, sequence (Q96RR4 whole entry): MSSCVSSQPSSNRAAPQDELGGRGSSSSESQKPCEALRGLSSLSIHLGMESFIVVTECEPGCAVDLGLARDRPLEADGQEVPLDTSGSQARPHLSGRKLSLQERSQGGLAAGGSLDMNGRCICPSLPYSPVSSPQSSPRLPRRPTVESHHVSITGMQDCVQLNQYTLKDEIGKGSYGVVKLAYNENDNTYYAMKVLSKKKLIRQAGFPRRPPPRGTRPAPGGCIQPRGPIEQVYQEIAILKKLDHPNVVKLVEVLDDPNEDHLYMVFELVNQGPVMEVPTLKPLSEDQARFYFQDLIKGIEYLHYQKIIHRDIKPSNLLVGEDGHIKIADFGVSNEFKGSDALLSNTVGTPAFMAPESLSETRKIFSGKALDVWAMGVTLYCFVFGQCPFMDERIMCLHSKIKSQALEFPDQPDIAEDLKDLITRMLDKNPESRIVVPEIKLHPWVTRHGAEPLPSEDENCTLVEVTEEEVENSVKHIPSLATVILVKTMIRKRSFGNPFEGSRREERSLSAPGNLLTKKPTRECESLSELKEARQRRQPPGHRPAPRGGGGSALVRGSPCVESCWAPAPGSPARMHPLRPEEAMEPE

In general, Kd refers to the free concentration of one partner at which half of the binding sites on the other are occupied at equilibrium, for simple one-to-one binding. Low readings indicate tighter binding, high ones weaker binding. Take `Nc1nc2c(-c3ccccn3)nccc2[nH]1` [drawing 35, 4-(pyrid-2-yl)-1H-imidazo[4,5-c]pyridin-2-amine]: the Kd was above 30 µM on CAMKK2 and 24 µM at ULK1.
